Values after ≈ are worked out from the molar mass of the structure shown. Inconclusive results are not listed. Active and inactive are the calls of the source. The rule behind the calls is not given here.

The IC50 is the concentration that inhibits the measured activity by half.

This experiment has as its system M. tuberculosis H37Rv growth inhibition. The experiment is described as follows: Mycobacterium tuberculosis H37Rv growth inhibition, cell based, confirmatory dose response (AID 1949).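 Note: bacteria grown 7 days with compound before Alamar blue readout.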
On to `O=C1c2ccccc2C(=O)c2c1nc1ccccn21`, for which the IC50 is 2.87 µg/mL (≈ 11.6 µM).

With `CCOc1ccc(NC(=O)C(C)Oc2ccc(C)c(C)c2)cc1` (stereo unspecified), the IC50 was 4.04 µg/mL (≈ 12.9 µM).

Consider `CC(NC(=O)Nc1cccc(C(F)(F)F)c1)C1CC2CCC1C2` (stereo unspecified), for which the half-inhibitory concentration (IC50) was under 0.1 µg/mL.

Consider `O=[N+]([O-])c1c(Nc2ccccc2)[nH]c2ccccc12`, for which the IC50 was 9.27 µg/mL (≈ 36.6 µM).

In the case of `O=C1c2ccc(-c3nc4ccccc4c(=O)o3)cc2C(=O)N1Cc1ccccc1`, the IC50 was > 50 µg/mL (inactive).

Regarding `O=C(NCCc1c[nH]c2ccccc12)Nc1ccc(Cl)c(Cl)c1`, the concentration for half-maximal inhibition (IC50) was 3.69 µg/mL (≈ 10.6 µM).

Turning to `Cc1ccc(NC(=S)c2ccccn2)c(C)c1`, the IC50 is 4.22 µg/mL (≈ 17.4 µM).

For the molecule `CCOC(=O)C(C)Oc1ccc2c(=O)c(-c3ccc(Br)cc3)coc2c1` (stereo unspecified), the IC50 was > 50 µg/mL (inactive).

Take `c1ccc2c(N3CCCCC3)nc(N3CCCC3)nc2c1`: the IC50 is 40.4 µg/mL (≈ 143 µM).

For the molecule `CC1(C)CC(=O)C2=C(C1)NC1=C(C(=O)c3ccccc31)C2c1ccc(C(F)(F)F)cc1` (stereo unspecified), the half-inhibitory concentration (IC50) is 30.3 µg/mL (≈ 71.7 µM).

For the molecule `CCOC(=O)Cn1cc(C#N)c2cccc(CC)c21`, the half-inhibitory concentration (IC50) was 0.87 µg/mL (≈ 3.39 µM).

On to `Cc1ccc2nsnc2c1S(=O)(=O)Nc1cccc2cccnc12`, for which the IC50 is 0.31 µg/mL (≈ 0.87 µM).

Consider `O=[N+]([O-])/C=C/c1ccc(-c2ccc(F)cc2)o1`, for which the IC50 is 10.1 µg/mL (≈ 43.3 µM).

`CCOC(=O)c1c(NC(=S)N2CCN(C(=O)C3CCCO3)CC2)sc(C)c1-c1ccccc1` (stereo unspecified): the half-maximal inhibitory concentration (IC50) was 6.67 µg/mL (≈ 13.7 µM).

On to `CCc1ccc(Oc2nc([N+](=O)[O-])nn2C)cc1`, for which the half-maximal inhibitory concentration (IC50) is 1.13 µg/mL (≈ 4.55 µM).

Take `O=C1C(=O)N(Cc2ccccc2Cl)c2ccc(Cl)cc21`: the IC50 was 9.36 µg/mL (≈ 30.6 µM).

Turning to `Cc1cc(Cl)ccc1OCC(O)CNC(C)c1ccccc1` (stereo unspecified), the IC50 is 8.02 µg/mL (≈ 25.1 µM).

With `Cc1ccc(NC(=S)Nc2cc(C)[nH]n2)c(Cl)c1`, the IC50 is 22.2 µg/mL (≈ 79.2 µM).

Consider `CSc1cccc(NC(=O)CSc2ccc(F)cc2)c1`, for which the IC50 is 2.86 µg/mL (≈ 9.3 µM).

Take `CCOC(=O)Cn1nnc(-c2ccc(OCc3ccccc3C)cc2)n1`: the IC50 is under 0.1 µg/mL.

In the case of `CCOC(=O)c1c(NC(=O)c2c(F)c(F)c(F)c(F)c2F)sc(C(=O)OC)c1C`, the IC50 was 0.37 µg/mL (≈ 0.846 µM).

Take `Cc1ccc(N2CCN(CC(O)COc3ccc4ccccc4c3)CC2)c(C)c1` (stereo unspecified): the IC50 was 9.31 µg/mL (≈ 23.8 µM).

On to `COCc1nc2ccccc2n1CCCOc1ccc(C)cc1`, for which the 50% inhibitory concentration (IC50) is 8.25 µg/mL (≈ 26.6 µM).

For the molecule `C=CCCCCCCCCC(=O)Nc1ccccc1C`, the 50% inhibitory concentration (IC50) is 8.62 µg/mL (≈ 31.5 µM).

On to `Cc1cc(C)c(-n2c(O)c(/C=C3\C=CC=N3)c(=O)[nH]c2=O)c(C)c1`, for which the IC50 was 0.13 µg/mL (≈ 0.402 µM).

With `COc1ccc(C)cc1NC(=O)c1ccc(CN2CCC(Cc3ccccc3)CC2)cc1`, the 50% inhibitory concentration (IC50) is 3.36 µg/mL (≈ 7.84 µM).

On to `O=C(COc1ccc(C(=O)NCc2ccccc2)cc1)OC1CCCCC1`, for which the IC50 was 0.73 µg/mL (≈ 1.99 µM).

For `CC(=O)Nc1ccc2cccc(O)c2n1`, the IC50 is 0.96 µg/mL (≈ 4.75 µM).

As for `CCOC(=O)COc1ccc2cc(-c3nc4ccccc4o3)c(=O)oc2c1`, the IC50 was 3.3 µg/mL (≈ 9.03 µM).

For `Fc1ccc(C2=NN(c3ccc(Cl)cc3)C(c3cccs3)C2)cc1` (stereo unspecified), the half-inhibitory concentration (IC50) was 5.63 µg/mL (≈ 15.8 µM).

With `N#Cc1c(NC(=S)NC(=O)c2ccc(Cl)cc2Cl)sc2c1CCCCC2`, the IC50 was 3.36 µg/mL (≈ 7.92 µM).

With `CSc1ccc(C(CC(=O)c2ccccc2)Nc2ccc(F)cc2)cc1` (stereo unspecified), the concentration for half-maximal inhibition (IC50) was 1.47 µg/mL (≈ 4.02 µM).

`Cc1ccccc1C(=O)N1CCN(c2ccc(NC(=S)NC(=O)c3cccc(Cl)c3)cc2)CC1`: the IC50 was > 50 µg/mL (inactive).

As for `CCC(Sc1nc2ccccc2o1)C(=O)Nc1nnc(C)s1` (stereo unspecified), the IC50 was 0.75 µg/mL (≈ 2.24 µM).

`CCOc1ccc(Nc2nc(-c3ccccn3)cs2)cc1`: the IC50 is under 0.1 µg/mL.

Turning to `Cc1ccc(-c2noc(CNc3cccc(Cl)c3)n2)cc1`, the 50% inhibitory concentration (IC50) was 13.9 µg/mL (≈ 46.4 µM).

Turning to `CCN(CC)c1ccc(NC(=O)c2ccc([N+](=O)[O-])o2)c(C)c1`, the half-maximal inhibitory concentration (IC50) was 0.52 µg/mL (≈ 1.64 µM).

On to `CC(C)(C)NCCCOc1ccc(Cl)cc1C(C)(C)C`, for which the IC50 was 23.3 µg/mL (≈ 78.2 µM).

With `O=C(NC(Nc1ccc([N+](=O)[O-])cc1)C(Cl)(Cl)Cl)c1cccc(I)c1` (stereo unspecified), the IC50 was 7.08 µg/mL (≈ 13.8 µM).

On to `O=C(c1ccc(Cl)cc1)c1ccc(OCC(O)CN2CCN(Cc3ccccc3)CC2)cc1` (stereo unspecified), for which the IC50 was 2.75 µg/mL (≈ 5.91 µM).

Consider `COc1ccc(-c2nc(-c3ccc(O)cc3O)cs2)cc1OC`, for which the 50% inhibitory concentration (IC50) is 0.17 µg/mL (≈ 0.516 µM).

On to `Cc1ccc(NC(=O)C(C)NS(=O)(=O)c2ccc(Cl)cc2)cc1Cl` (stereo unspecified), for which the IC50 was 2.85 µg/mL (≈ 7.36 µM).

For `Cc1ccc2c(C)nc(Nc3nc(CSc4nc5ccccc5s4)cc(=O)[nH]3)nc2c1`, the IC50 was 0.38 µg/mL (≈ 0.851 µM).

Consider `C=CCN(CC=C)C(=S)NC(=O)c1ccc(OC)cc1`, for which the IC50 was > 50 µg/mL (inactive).

Take `N=c1c2c(-c3ccccc3)c(-c3ccccc3)n(Cc3ccco3)c2ncn1Cc1ccco1`: the IC50 is 3.09 µg/mL (≈ 6.92 µM).

In the case of `CCOC(=O)COc1ccc2c(=O)c(-c3ccc(F)cc3)coc2c1`, the half-inhibitory concentration (IC50) was 21.3 µg/mL (≈ 62.3 µM).

Take `Cc1ccc(C(=O)Nc2ccc(N3CCCC3)c(Cl)c2)c(C)c1`: the IC50 was 6.72 µg/mL (≈ 20.4 µM).

Turning to `c1ccc(CNc2cc(-n3cccn3)nc(-c3ccccc3)n2)cc1`, the IC50 is > 50 µg/mL (inactive).

As for `CCc1ccc(C2=CC(=O)c3ccccc3C2=O)cc1`, the IC50 is 5.94 µg/mL (≈ 22.6 µM).

On to `CN(C)c1ccc(Nc2nc(-c3ccccn3)cs2)cc1`, for which the IC50 is 0.74 µg/mL (≈ 2.5 µM).

As to `CC(C)c1ccc(OCC(=O)NNC(=S)NC(=O)c2ccco2)c(Br)c1`, the IC50 was 0.25 µg/mL (≈ 0.568 µM).

Source of the values: PubChem BioAssay AID1949 (Southern Research Institute, 2009).
